Reference: patent publication US20140221499A1, “NOVEL RODENT CONTROL AGENTS AND USES THEREOF” (priority 2011, published 2014)

Key:
[1] = target: T1, mouse TAAR4 (Mus musculus, UniProt Q5QD15); assay: TAAR4 CRE-SEAP reporter gene assay in transfected HEK293 cells; assay type: cell-based; details: 10 μM
T1 construct: Full Taar coding regions were cloned into pcDNA3.1-(Invitrogen); expressed in transfected cells; host or cells: HEK293
T1 sequence (Q5QD15 1-347): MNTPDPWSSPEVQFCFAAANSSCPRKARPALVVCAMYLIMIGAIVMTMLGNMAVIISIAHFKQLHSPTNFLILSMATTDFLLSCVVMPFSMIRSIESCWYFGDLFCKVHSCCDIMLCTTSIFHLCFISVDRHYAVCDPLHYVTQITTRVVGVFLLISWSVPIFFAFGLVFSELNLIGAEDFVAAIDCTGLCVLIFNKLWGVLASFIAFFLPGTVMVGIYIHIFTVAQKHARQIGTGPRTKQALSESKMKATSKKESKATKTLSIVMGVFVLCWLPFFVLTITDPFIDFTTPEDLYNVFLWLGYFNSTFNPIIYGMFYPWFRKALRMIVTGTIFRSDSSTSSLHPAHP
Procedure: HEK293 cells were co-transfected with TAAR expression plasmids and a cAMPdependent reporter gene encoding secreted alkaline phosphatase (CRE-SEAP). Transfected cells were incubated with urine extracts from different mammalian species, and phosphatase activity was quantified with a fluorescent substrate as a reporter for TAAR activation.
Test urines were diluted in serum-free media containing penicillin G (100 Units/ml, Invitrogen) and streptomycin sulfate (100 mg/ml, Invitrogen). SEAP activity is measured as fluorescence resulting from dephosphorylation of a substrate, 4-methylumbelliferyl phosphate. Fluorescence values were obtained using an EnVision plate reader (Perkin Elmer) and are reported directly without normalization.

[2] = test system: Sprague-Dawley rats; assay: Open field odor avoidance; assay type: in vivo, rat; details: ten minute exposure, 12 animals ±SEM; 1 ml urine or 5 μl amine
Procedure: We next examined behavioral responses of rodents to 2-phenylethylamine. […] Behaviors of rats in a square-shaped arena were recorded and analyzed following placement of test stimuli in a pseudorandom corner (FIG. 5A). […] Thus, 2-phenylethylamine, in the absence of other predator odor cues, was sufficient to evoke rat avoidance behavior.
Open field behavioral analysis. Rat behavioral responses to odors in the open field were measured as described previously (Fendt M (2006) Exposure to urine of canids and felids, but not of herbivores, induces defensive behavior in laboratory rats. Journal of chemical ecology 32(12):2617-2627) with the following modifications. Adult Sprague-Dawley rats (240-340 g; Janvier, Le Genest St. Isle, France) were placed in the center of a 45 cm×45 cm Plexiglass arena (TSE Systems, Bad Homburg, Germany) equipped with infrared sensors (distance 14 mm, illumination 80-120 lux). The arena contained glass dishes (36 mm) in each corner, with one dish containing test stimuli. Prior to testing, animals were habituated to the arena by introducing them for three consecutive days. […] Location of the rats was automatically recorded using the infrared detectors and analyzed (TSE Systems software). Statistical significance was measured using Wilcoxon Signed Test (**p<0.01; comparison with chance level (25%)). […]

[3] = target: T2, mTAAR7f-SS (Mus musculus, UniProt Q5QD08, C133S/Y132S); assay: Reporter gene assay on mutant receptor mTAAR7f-SS; assay type: cell-based; details: mutant vs mTAAR7f
T2 construct: Full Taar coding regions were cloned into pcDNA3.1-(Invitrogen); Rho tag (first 20 aa of bovine rhodopsin + linker); expressed in transfected cells; host or cells: HEK293
T2 sequence (Q5QD08 1-358 Y132S/C133S): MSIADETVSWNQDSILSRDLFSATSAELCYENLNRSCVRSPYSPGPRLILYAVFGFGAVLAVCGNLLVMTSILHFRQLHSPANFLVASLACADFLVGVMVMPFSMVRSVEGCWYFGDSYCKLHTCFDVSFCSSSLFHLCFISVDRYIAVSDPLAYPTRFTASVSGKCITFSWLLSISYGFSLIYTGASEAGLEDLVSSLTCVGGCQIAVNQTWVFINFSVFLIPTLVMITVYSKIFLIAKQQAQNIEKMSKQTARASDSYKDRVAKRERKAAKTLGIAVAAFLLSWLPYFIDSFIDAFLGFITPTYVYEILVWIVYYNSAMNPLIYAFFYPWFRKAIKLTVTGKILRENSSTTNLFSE
Procedure: To test this, we created mutant receptors in which sequences of mTAAR7e were swapped into mTAAR7f and vice versa. Position 132^3.37 is a tyrosine in mTAAR7f and the other three receptors that detect 10, but a serine in mTAAR7e and a cysteine in rTAAR7h, the two receptors that detect 6. Furthermore, position 133^3.38 is a cysteine in mTAAR7f but a serine in mTAAR7e and rTAAR7h. We altered positions 132^3.37 and 133^3.38 by mutation of mTAAR7e (‘mTAAR7e-YC’) and mTAAR7f (‘mTAAR7f-SS’) and examined odor responses of these mutants using the cellular reporter gene assay (FIG. 9).
TAAR functional assays. Full Taar coding regions were cloned into pcDNA3.1-(Invitrogen) with or without a 5′ DNA extension of 69 bp encoding the first 20 amino acids of bovine rhodopsin followed by a cloning linker ([…]). Point mutations were introduced in mTAAR7e and mTAAR7f by overlap extension PCR. Functional assays were performed as described (40, 42). Fluorescence was measured on an EnVision plate reader (Perkin Elmer) and SEAP activity graphed as relative fluorescence of a phosphatase substrate.

`NCCc1ccccc1` [2-phenylethylamine] was tested. Which TAAR4 activation [1] did it give?
The TAAR4 activation was “activates TAAR4”.

And the “percentage of time rats are located in the odor quadrant” value [2]?
The value was 8.0±2.0%.

Which “reduced affinity of mTAAR7f-SS” value [3] does the source give for `CN(C)C1CCCCC1` [ligand 10, N,N-dimethylcyclohexylamine] here?
Its value is ~100 fold.
